In PubChem BioAssay (NCI):
Where “and” joins values, the source holds several entries; their conditions need not be identical. Equal values may be shown once.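 Cultured in 96-well plates, cells were exposed to test compound for 48 hours across five concentrations. GI50: concentration for 50% inhibition of growth. TGI: concentration producing complete growth inhibition.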

What was measured:
Experiment in all cases: DTP human tumour cell line panel, 48 h
[1] = tested on: UACC-62 melanoma
[2] = tested on: HCC-2998 colon
[3] = tested on: HOP-62 NSCLC
[4] = tested on: SK-MEL-2 melanoma
[5] = tested on: SNB-19 CNS
[6] = tested on: HOP-92 NSCLC
[7] = tested on: CAKI-1 renal
[8] = tested on: COLO 205 colon
[9] = tested on: UACC-257 melanoma
[10] = tested on: SNB-75 CNS
[11] = tested on: HCT-15 colon
[12] = tested on: SF-268 CNS
[13] = tested on: MDA-N
[14] = tested on: T-47D breast

Row | Compound | TGI [1] | TGI [2] | TGI [3] | TGI [4] | TGI [5] | TGI [6] | TGI [7] | TGI [8] | TGI [9] | TGI [10] | TGI [11] | TGI [12] | GI50 [1] | GI50 [3] | GI50 [4] | GI50 [8] | GI50 [11] | GI50 [12] | TGI [13] | TGI [14]
1 | CN1C(=O)c2ccccc2NC(=O)c2cnn(C)c21 | > 100 µM | > 100 µM | > 100 µM | > 100 µM | > 100 µM | > 100 µM | > 100 µM | > 100 µM | > 100 µM | > 100 µM | > 100 µM | > 100 µM | – | – | – | – | – | – | – | –
2 | CC1=C(C)C(=O)O[C@@H]([C@](C)(O)[C@]2(O)CC[C@@]3(O)[C@@H]4C[C@H]5O[C@]56[C@@H](O)C=CC(=O)[C@]6(C)[C@H]4CC[C@]23C)C1 | 3.41 µM and 3 µM | 5.76 µM | 11.4 µM and 14.6 µM | 1.65 µM and 2.56 µM | 31.1 µM | 0.345 µM | – | 0.436 µM and 0.255 µM | 3.84 µM | 0.884 µM | 2.87 µM and 3.02 µM | – | 0.288 µM and 0.0848 µM | 1.28 µM | 0.385 µM | 0.0847 µM and 0.0461 µM | 0.169 µM | 1.3 µM and 0.381 µM | – | –
3 | S=C1SC(=Nc2ccccc2)C(=Nc2ccccc2)N1c1ccccc1 | > 100 µM | > 100 µM | > 100 µM | > 100 µM | > 100 µM | – | > 100 µM | > 100 µM | – | 73.7 µM | > 100 µM | – | – | – | – | – | – | – | > 100 µM | > 100 µM
4 | O=C(O)CNC(=O)CO/N=C1/C(c2c(O)[nH]c3ccccc23)=Nc2ccccc21 | > 100 µM | > 100 µM | 87.3 µM | > 100 µM | > 100 µM | > 100 µM | > 100 µM | > 100 µM | > 100 µM | > 100 µM | > 100 µM | > 100 µM | – | – | – | – | – | – | > 100 µM | > 100 µM
5 | COCO[C@@H]1C[C@H]2C(O)Nc3ccccc3C(=O)N2C1 (stereo not given in full) | > 100 µM | > 100 µM | > 100 µM | > 100 µM | > 100 µM | > 100 µM | > 100 µM | > 100 µM | > 100 µM | > 100 µM | > 100 µM | > 100 µM | – | – | – | – | – | – | > 100 µM | > 100 µM
6 | CCSc1nc(N)c2c(-c3ccc(OC)c(OC)c3)c3c(nc2n1)CCCC3 | > 100 µM | – | > 100 µM | – | > 100 µM | – | > 100 µM | > 100 µM | > 100 µM | > 100 µM | > 100 µM | > 100 µM | – | – | – | – | – | – | > 100 µM | > 100 µM
7 | CCC(=O)Nc1ccc(N=Cc2cccc(Oc3ccccc3)c2)cc1 | > 100 µM | – | > 100 µM | > 100 µM | > 100 µM | > 100 µM | > 100 µM | > 100 µM | – | > 100 µM | > 100 µM | > 100 µM | – | – | – | – | – | – | > 100 µM | > 100 µM
8 | COCc1nc2c(OC)cc(-c3nc4nc(N5CCN(C)CC5)ccc4[nH]3)c(OC)c2[nH]1 | > 100 µM | > 100 µM | > 100 µM | – | > 100 µM | > 100 µM | > 100 µM | > 100 µM | 61 µM | > 100 µM | > 100 µM | > 100 µM | – | – | – | – | – | – | > 100 µM | > 100 µM
9 | Cc1cc(NC(=S)Nc2ccccc2)c(NC(=S)Nc2ccccc2)cc1C | > 100 µM | > 57.6 µM | > 100 µM | > 31.6 µM | > 100 µM | > 100 µM | > 89.6 µM | > 74.3 µM | > 100 µM | > 94.7 µM | > 100 µM | > 100 µM | – | – | – | – | – | – | – | –
10 | CC(C)=CC1C(COC(=O)c2cc3c(cc2Cl)OCO3)C1(C)C (stereo not given) | > 100 µM | – | > 100 µM | 40.6 µM | > 100 µM | 78 µM | 69.7 µM | – | > 100 µM | – | 92.6 µM | 65.8 µM | – | – | – | – | – | – | > 100 µM | > 100 µM
11 | COC(=O)CCC(=O)CC(=O)C1=NS(=O)(=O)c2nc(S(N)(=O)=O)c(Cl)cc2N1 | > 100 µM | > 100 µM | > 100 µM | > 100 µM | > 100 µM | > 100 µM | > 100 µM | > 100 µM | > 100 µM | > 100 µM | > 100 µM | > 100 µM | – | – | – | – | – | – | – | –
12 | CC1C(=O)OC2CC[N+]3(CC(=O)c4ccc(Br)cc4)CC=C(COC(=O)C(C)(O)C1(C)O)C23 (stereo not given) | > 375 µM | > 375 µM | > 375 µM | > 375 µM | > 375 µM | > 375 µM | > 375 µM | > 375 µM | > 375 µM | > 375 µM | > 375 µM | > 375 µM | – | – | – | – | – | – | – | –
13 | CC1=NN(c2cccc(Cl)c2)C2(SCC(=O)N2c2nc3ccccc3s2)/C1=C\c1ccc(Cl)cc1 (stereo not given) | – | 27.5 µM | 35.3 µM | 35.7 µM | – | 28.3 µM | 39.2 µM | – | 63.9 µM | – | 38.1 µM | 46.2 µM | – | – | – | – | – | – | 69.8 µM | > 100 µM
14 | Nc1ccccc1CCCC(=O)O | > 100 µM | > 100 µM | > 100 µM | > 100 µM | > 100 µM | > 100 µM | > 100 µM | > 100 µM | > 100 µM | > 100 µM | > 100 µM | > 100 µM | – | – | – | – | – | – | > 100 µM | > 100 µM
15 | Cn1c2ccccc2c2c(-c3ccccc3)[n+]3ccccc3nc21 | 39.3 µM | – | 68 µM | 40.4 µM | > 100 µM | 39.7 µM | > 100 µM | > 100 µM | 36.9 µM | > 100 µM | > 100 µM | 38.8 µM | – | – | – | – | – | – | – | > 100 µM
16 | CN(C)c1ccc(/C=C2/SC(=S)NC2=O)cc1 | > 100 µM | > 100 µM | > 100 µM | > 100 µM | > 100 µM | > 100 µM | > 100 µM | > 100 µM | > 100 µM | > 100 µM | > 100 µM | > 100 µM | – | – | – | – | – | – | > 100 µM | > 100 µM
17 | O=C1C=CC2(O[C@H](c3ccccc3)[C@@H](c3ccccc3)O2)C(SC(=O)c2ccccc2)C1 (stereo not given in full) | 5.84 µM | – | 3.31 µM | 3.51 µM | 5.63 µM | – | 6.53 µM | 2.69 µM | 3.97 µM | 5.34 µM | 2.2 µM | 3.02 µM | – | – | – | – | – | – | 3.32 µM | 7.89 µM
18 | O=C(O)CCCCCCC[C@@H]1S[C@H]1CCCCCCO | > 100 µM | > 100 µM | > 100 µM | > 100 µM | > 100 µM | > 94.4 µM | > 100 µM | > 100 µM | > 100 µM | > 100 µM | > 100 µM | > 100 µM | – | – | – | – | – | – | – | –
19 | C[n+]1c2ccccc2c(CNc2ccc(S(=O)(=O)N=C(N)N)cc2)c2ccccc21 | 42.1 µM | 39.2 µM | 40 µM | 59.5 µM | 31.6 µM | 54.3 µM | 19.9 µM | – | 41.3 µM | 39.9 µM | 32.3 µM | > 100 µM | – | – | – | – | – | – | – | –
20 | COc1cc2c(cc1OCCCOc1cc(-c3ccc(F)cc3)nc(C)n1)N=C[C@@H]1CCCN1C2=O | 28.7 µM | – | – | 35.2 µM | 64.4 µM | > 100 µM | 31.9 µM | > 100 µM | 43 µM | 49.1 µM | 25.8 µM | 36.4 µM | – | – | – | – | – | – | – | > 100 µM
21 | CC(C)(C)NCc1cc(Nc2ccnc3cc(Cl)ccc23)cc(-c2ccc(Cl)cc2)c1O | 3.85 µM | 3.82 µM | 6.38 µM | 4.02 µM | 18.2 µM | 7.08 µM | 10.6 µM | 3.35 µM | 4.11 µM | 5.13 µM | 9.96 µM | 16.2 µM | – | – | – | – | – | – | 3.19 µM | 13.3 µM
22 | COc1cc(O)cc(/C=C/c2ccc(O)cc2)c1 | 60.5 µM | – | > 100 µM | > 100 µM | > 100 µM | 91.9 µM | 78.2 µM | > 100 µM | > 100 µM | > 100 µM | 29.9 µM | > 100 µM | – | – | – | – | – | – | – | > 100 µM
23 | Cc1ccc(CC(=O)Nc2ccc(NC(=O)/C=C/NC(=O)/C=C/c3ccc(-c4ccccc4)cc3)cc2C(=O)c2ccccc2)cc1 | 4.87 µM | 1.61 µM | 4.15 µM | 5.79 µM | 16 µM | – | 11.3 µM | 4.53 µM | 4.71 µM | 6.59 µM | 9.53 µM | 9.46 µM | – | – | – | – | – | – | 6.61 µM | 18 µM
